Results published in PubChem BioAssay AID328 (DTP/NCI, 2004).
Values joined by “and” are separate entries in the source; they are usually repeats but may differ in a detail not shown here. Equal entries are not always repeated. Inconclusive results and toxic doses are left out. How the source made its calls: active means survival T/C of 150% or more; inactive means T/C below 125% in these data.

Test system: BDF1 mice, P388 leukemia ip, median survival T/C
Assay: NCI In Vivo Anticancer Drug Screen. Data for tumor model P388 Leukemia (intraperitoneal) in B6D2F1 (BDF1) mice
Conditions: endpoint: median survival time, higher = longer survival
In short: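 Read-out is survival of treated animals expressed relative to the vehicle group, as a T/C ratio.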

[1] = dose: 25.0 mg/kg/injection, schedule: Q01DX009 (ip), vehicle: saline with Tween-80
[2] = dose: 25.0 mg/kg/injection, schedule: Q04DX003 (ip), vehicle: saline with Tween-80
[3] = dose: 50.0 mg/kg/injection, schedule: Q01DX009 (ip), vehicle: saline with Tween-80
[4] = dose: 50.0 mg/kg/injection, schedule: Q04DX003 (ip), vehicle: saline with Tween-80
[5] = dose: 100.0 mg/kg/injection, schedule: Q01DX009 (ip), vehicle: saline with Tween-80
[6] = dose: 100.0 mg/kg/injection, schedule: Q04DX003 (ip), vehicle: saline with Tween-80
[7] = dose: 200.0 mg/kg/injection, schedule: Q01DX009 (ip), vehicle: saline with Tween-80
[8] = dose: 400.0 mg/kg/injection, schedule: Q01DX009 (ip), vehicle: saline with Tween-80
[9] = dose: 400.0 mg/kg/injection, schedule: Q04DX003 (ip), vehicle: saline with Tween-80
[10] = dose: 100.0 mg/kg/injection, schedule: Q04DX003 (ip), vehicle: Klucel (hydroxypropylcellulose) (HPC)
[11] = dose: 200.0 mg/kg/injection, schedule: Q04DX003 (ip), vehicle: saline with Tween-80
[12] = dose: 12.5 mg/kg/injection, schedule: Q01DX009 (ip), vehicle: saline with Tween-80
[13] = dose: 12.5 mg/kg/injection, schedule: Q04DX003 (ip), vehicle: saline with Tween-80
[14] = dose: 6.25 mg/kg/injection, schedule: Q01DX009 (ip), vehicle: saline with Tween-80

Measured: T/C

O=c1[nH]c(Cl)nc2c(Cl)c(C(Cl)(Cl)Cl)nn12
inactive: [1] 104 % of control | [2] 113 % of control | [3] 109 % of control | [4] 120 % of control | [5] 106 % of control | [6] 93 % of control and 104 % of control | [7] 109 % of control | [8] 104 % of control | [9] 86 % of control

N#Cc1cnc2nc1NCCCCCCC2
inactive: [6] 86 % of control

C/C=C/c1ccc2ccc[n+](C)c2c1O
inactive: dose: 22.0 mg/kg/injection, schedule: Q04DX003 (ip), vehicle: saline sonified 100 % of control | dose: 25.0 mg/kg/injection, schedule: Q04DX003 (ip), vehicle: saline sonified 110 % of control | dose: 33.0 mg/kg/injection, schedule: Q04DX003 (ip), vehicle: saline sonified 113 % of control | dose: 75.0 mg/kg/injection, schedule: Q04DX003 (ip), vehicle: saline sonified 118 % of control

Nc1nc(CNc2ccc(Cl)cc2)nc(Nc2ccccc2)n1
inactive: dose: 100.0 mg/kg/injection, schedule: Q04DX003 (ip), vehicle: saline 105 % of control | dose: 200.0 mg/kg/injection, schedule: Q04DX003 (ip), vehicle: saline 100 % of control | dose: 400.0 mg/kg/injection, schedule: Q04DX003 (ip), vehicle: saline 100 % of control

CC(C)(C)OC(=O)NNC(=O)C(CSC(c1ccccc1)c1ccccc1)N1C(=O)c2ccccc2C1=O (centres undefined)
inactive: [10] 95 % of control | dose: 200.0 mg/kg/injection, schedule: Q04DX003 (ip), vehicle: Klucel (hydroxypropylcellulose) (HPC) 100 % of control | dose: 400.0 mg/kg/injection, schedule: Q04DX003 (ip), vehicle: Klucel (hydroxypropylcellulose) (HPC) 90 % of control

CN(C)c1ccc(/C=N/Nc2ncnc3nc[nH]c23)cc1
inactive: [6] 103 % of control | [11] 96 % of control | [9] 103 % of control

O=C1C(Br)=CC(=C2C=C(Br)C(=O)C(Br)=C2)C=C1Br
inactive: dose: 50.0 mg/kg/injection, schedule: Q04DX003 (ip), vehicle: Klucel (hydroxypropylcellulose) (HPC) 113 % of control | [10] 122 % of control

Clc1ccc(CNc2ncnc3[nH]ncc23)c(Cl)c1
inactive: [3] 104 % of control | [5] 100 % of control | [7] 90 % of control

Nc1ccc(S(=O)(=O)Nc2ccc([N+](=O)[O-])cc2)cc1
inactive: [12] 87 % of control | [1] 96 % of control and 105 % of control | [2] 102 % of control | [3] 89 % of control | [4] 99 % of control | [5] 87 % of control and 93 % of control | [6] 105 % of control | [11] 112 % of control | [9] 114 % of control

COc1ccc(CC(=O)NCCc2ccccc2)cc1OC
inactive: [12] 112 % of control | [13] 100 % of control | [1] 104 % of control | [2] 100 % of control | [3] 110 % of control | [4] 109 % of control | [6] 99 % of control and 100 % of control

CCN(CC)CCOc1cccc(C)c1C
inactive: [2] 96 % of control | [4] 100 % of control | [6] 116 % of control

CCCCOCN(COCCCC)c1ccc([N+](=O)[O-])cc1
inactive: [3] 106 % of control | [5] 104 % of control | [7] 100 % of control

Cc1ccc(NCCNCC(C)(C)O)c2c(=O)c3ccccc3sc12
inactive: dose: 12.5 mg/kg/injection, schedule: Q04DX003 (ip), vehicle: saline 100 % of control | dose: 25.0 mg/kg/injection, schedule: Q04DX003 (ip), vehicle: saline 120 % of control | dose: 50.0 mg/kg/injection, schedule: Q04DX003 (ip), vehicle: saline 120 % of control | dose: 75.0 mg/kg/injection, schedule: Q04DX003 (ip), vehicle: saline 100 % of control and 115 % of control and 118 % of control | dose: 115.0 mg/kg/injection, schedule: Q04DX003 (ip), vehicle: saline 115 % of control and 120 % of control | dose: 170.0 mg/kg/injection, schedule: Q04DX003 (ip), vehicle: saline 115 % of control and 122 % of control

S=c1[nH]ncn1-c1ccccc1
inactive: [14] 99 % of control | [12] 99 % of control | [1] 99 % of control | [3] 96 % of control

NC(=O)c1[nH]nc(C2OC(CO)C(O)C2O)c1O (centres undefined)
inactive: dose: 0.25 mg/kg/injection, schedule: Q01DX009 (ip), vehicle: saline 116 % of control | dose: 0.5 mg/kg/injection, schedule: Q04DX003 (ip), vehicle: saline 99 % of control and 100 % of control and 104 % of control | dose: 0.62 mg/kg/injection, schedule: Q01DX009 (ip), vehicle: saline 100 % of control | dose: 0.63 mg/kg/injection, schedule: Q01DX009 (ip), vehicle: saline 113 % of control | dose: 1.0 mg/kg/injection, schedule: Q01DX009 (ip), vehicle: saline 120 % of control | dose: 1.0 mg/kg/injection, schedule: Q04DX003 (ip), vehicle: saline 103 % of control and 109 % of control | dose: 1.25 mg/kg/injection, schedule: Q01DX009 (ip), vehicle: saline 100 % of control | dose: 2.0 mg/kg/injection, schedule: Q04DX003 (ip), vehicle: saline 106 % of control and 108 % of control (2×) | dose: 4.0 mg/kg/injection, schedule: Q04DX003 (ip), vehicle: saline 99 % of control and 115 % of control | dose: 5.0 mg/kg/injection, schedule: Q04DX003 (ip), vehicle: saline 118 % of control | dose: 8.0 mg/kg/injection, schedule: Q04DX003 (ip), vehicle: saline 100 % of control and 112 % of control and 123 % of control | dose: 10.0 mg/kg/injection, schedule: Q04DX003 (ip), vehicle: saline 107 % of control | dose: 16.0 mg/kg/injection, schedule: Q04DX003 (ip), vehicle: saline 123 % of control | dose: 20.0 mg/kg/injection, schedule: Q04DX003 (ip), vehicle: saline 118 % of control

Cc1ccc(CC2NC(=O)NC2=O)cc1 (centres undefined)
inactive: [14] 104 % of control | [12] 88 % of control and 99 % of control | [1] 90 % of control and 98 % of control | [3] 98 % of control and 120 % of control | [4] 122 % of control | [5] 87 % of control and 118 % of control | [6] 122 % of control | [7] 111 % of control | [11] 105 % of control | [8] 96 % of control | [9] 105 % of control

COc1cccc2c1C(=O)c1c(O)c3c(c(O)c1C2=O)C[C@@](O)(C(=O)CO)C[C@@H]3OC1CC(NC(=O)C(F)(F)F)C(O)C(C)O1 (some centres undefined)
inactive: dose: 3.13 mg/kg/injection, schedule: Q04DX009 (ip), vehicle: other 113 % of control | dose: 6.25 mg/kg/injection, schedule: Q04DX009 (ip), vehicle: other 121 % of control | dose: 12.5 mg/kg/injection, schedule: Q04DX009 (ip), vehicle: other 123 % of control

CCOC(=O)C(=O)C1CCNC1=O (centres undefined)
inactive: [13] 100 % of control | [2] 100 % of control | [4] 100 % of control

NS(=O)(=O)c1ccc(NC2OCC(O)C(O)C2O)cc1 (centres undefined)
inactive: [5] 95 % of control | [7] 90 % of control | [8] 100 % of control

O=C1OC(c2ccc(O)cc2)(c2ccc(Oc3ccccc3)cc2)c2ccccc21 (centres undefined)
inactive: [5] 97 % of control | [7] 105 % of control | [8] 99 % of control

CCOC(=O)CN1C(=O)S/C(=C/c2ccc([N+](=O)[O-])o2)C1=O
inactive: dose: 100.0 mg/kg/injection, schedule: Q04DX002 (ip), vehicle: saline with Tween-80 94 % of control | dose: 200.0 mg/kg/injection, schedule: Q04DX002 (ip), vehicle: saline with Tween-80 105 % of control
